“Also recorded” adds a separate entry of the source.
Experiments:
[1] = tested on: B cell (CD19 gated) in human PBMCs; experiment: atezolizumab addition experiment, PD-L1/PD-1 expression on B cell by FCM; assay type: cell-based; conditions: TSST-1, 3 days
Description: (§1) As for an experiment of atezolizumab addition, 0 to 200 μM P4 or COR, 1 μM TSST-1, and 100 μg/mL atezolizumab were added to PBMCs, and the resultant was cultured for 72 hours at 37° C. in 5% CO2, followed by analysis by FCM.

[2] = tested on: Human peripheral blood mononuclear cells (PBMCs); experiment: cytokine production in PBMCs activated in the presence of P4; assay type: cell-based; conditions: 0 to 200 μM; PBMCs + TSST-1; 3 days
Description: (§2) The PBMCs (final concentration: 1×10^6/mL) were cultured for 3 days at 37° C. in 5% CO2 in 10% FCS-containing RPMI 1640 to which P4 or COR was added in various concentrations with stimulation by 1 μg/mL of toxic shock syndrome toxin-1 (TSST-1). These cells were collected, washed with PBS, and dispensed into a Fisher tube in an amount of 1×10^6 cells/tube. For analysis of a human cell surface marker, a fluorescent-labeled anti-human monoclonal antibody (mAbs) was used. The cells were stained with the mAbs, a reaction was performed for 15 minutes at 4° C., and the resultant was washed with PBS containing 1% (w/v) BSA. Then, the resultant was analyzed by FACS Fortessa, or FACS Verse (BD Bioscience, Franklin Lakes, NJ). In the analysis, a leukocyte gated or lymphocyte gated cells were further gated by expression of human CD45, and then the analysis was performed. A culture supernatant was collected, and 25 μL thereof was dispensed to quantitatively determine cytokine with Legend Plex™ kit from BioLegend.

[3] = tested on: Human peripheral blood mononuclear cells (PBMCs); experiment: number of cells of TSST-1-stimulated PBMCs cultured with P4 or COR; assay type: cell-based; conditions: PBMCs + TSST-1; 3 days; high concentration
Description: as §2

B cell in PBMCs [4] = experiment: restimulation experiment (transient vs continuous P4/COR), PD-L1 on B cells; assay type: cell-based, human; conditions: TSST-1 3 days
Description: (§3) In a restimulation experiment, PBMCs were cultured for 6 hours at 37° C. in 5% CO2 in 10% FCS-containing RPMI 1640 to which 200 μM P4 or COR was added. These cells were washed, adjusted to a final concentration of 1×10^6/mL, and cultured again in the presence or absence of 200 μM P4 or COR with stimulation by 1 μM TSST-1. After 72 hours, the resultant cells were collected to be analyzed by FCM.

[5] = tested on: Hu-PBMC-NOG (GVHD onset model); experiment: GVHD onset model: human PBMCs transplanted to NOG mouse, P4 or COR administered subcutaneously; assay type: in vivo; conditions: 4 weeks
Description: In the analysis using the GVHD model, PBMCs prepared in the same manner as described above were washed with PBS, and 2.5×10^6 PBMCs were intravenously transplanted to each 8- to 9-week-old NOG mouse. […] At the same time as the administration, the weight was measured. After 4 weeks, the mouse was anesthetized to collect heart blood, and euthanized. From various lymphoid organs excised, human cells were prepared, hemolyzed, and then subjected to FCM. Besides, the lung and the liver were excised, and immunohistochemically stained as follows. A tissue of the mouse was immobilized with 20% formalin (Wako Pure Chemical Industries, Ltd.), and embedded in paraffin. The obtained paraffin block was sliced, and the resultant was subjected to deparaffinization, mounted on a slide glass, and stained with hematoxylin and eosin (HE). In immunohistochemical staining with an anti-human CD45 antibody, the slide was subjected to a heat treatment at 97° C. for 20 minutes, and subjected to an endogenous peroxidase treatment through a reaction with 0.3% H2O2/MetOH at room temperature for 10 minutes. Thereafter, the resultant was blocked with 1% goat serum, and anti-human CD45 (Dako) was added thereto, followed by a reaction overnight at 4° C. The resultant slide was washed 3 times with 0.01 M PBS for 5 minutes, and colored with a DAB solution. The resultant was washed with running water for 3 minutes, and stained with hematoxylin, followed by dehydration and penetration/encapsulation.

B cell in PBMCs [6] = experiment: FCM analysis of PD-1 on B cells of TSST-1-stimulated PBMCs; assay type: cell-based, human; conditions: TSST-1 and P4/COR stimulation; data not shown
Description: as §2

HEK293 = experiment: proliferating ability of cell line cultured with P4 or COR; assay type: cell-based, human; conditions: 200 μM, cultured 10 days
Description: (§4) Each of human choriocarcinoma cell line JEG-3, BeWo, and embryonic kidney cell line HEK293 was cultured for 10 days at 37° C. in 5% CO2 in a 10% Fetal Calf Serum (FCS)-containing DMEM (Gibuco) to which water-soluble progesterone (P4; water soluble) (Sigma) or cortisol (COR) (Sigma) was added in various concentrations. Each of mouse myeloma cell line P3-X63-Ag8-U1 (P3X) and mouse lymphoma cell line A20 was cultured for 3 days at 37° C. in 5% CO2 in 10% FCS-containing RPMI 1640 to which P4 or COR was added in various concentrations. Proliferation of the cells was evaluated by measuring the number of the cells.

JEG-3 = experiment: as above; assay type: cell-based, human; conditions: 200 μM, cultured 10 days
Description: as §4

BeWo = experiment: as above; assay type: cell-based, human; conditions: 200 μM, cultured 10 days
Description: as §4

PBMC-NOG-hIL-4-Tg mouse = experiment: transplantation of P4/COR-cultured PBMCs to NOG-hIL-4-Tg mouse immunized with CH401MAP; assay type: in vivo
[7] = tested on: CD4 and CD8 T cells in PBMCs; experiment: restimulation experiment (transient vs continuous P4/COR), PD-1/PD-L1 on T cells; assay type: cell-based, human; conditions: CD4 and CD8 T cells, TSST-1 3 days
Description: as §3

[8] = tested on: T cell (CD3 gated) in human PBMCs; experiment: atezolizumab addition experiment, PD-L1/PD-1 expression on T cell by FCM; assay type: cell-based; conditions: 0 to 200 μM; TSST-1; 3 days
Description: as §1

A20 = experiment: proliferating ability of cell line cultured with P4 or COR; assay type: cell-based, mouse; conditions: cultured 3 days
Description: as §4

P3-X63-Ag8-U1 (P3X) = experiment: as above; assay type: cell-based, mouse; conditions: cultured 3 days
Description: as §4

[9] = tested on: CD4 and CD8 T cells in PBMCs; experiment: FCM analysis of activation/exhaustion markers (CD25, PD-1) on T cells of TSST-1-stimulated PBMCs; assay type: cell-based, human; conditions: day 3
Description: as §2

[10] = 2 mg/head subcutaneously twice a week

CC(=O)[C@H]1CC[C@H]2[C@@H]3CCC4=CC(=O)CC[C@]4(C)[C@H]3CC[C@]12C [P4, progesterone]
PD-L1 expression in a B cell ([1]; 0 to 200 μM): showed PD-L1 expression | PD-L1 expression in a B cell ([1]; 20 μM): high | cytokine production in culture supernatant (10 cytokines of FIG. 4) [2]: suppression of cytokine production was observed depending on the P4 concentration | proliferation (number of cells) [3]: suppressed | PD-L1 expression in B cell (B cell in PBMCs [4]; continuous administration, 200 μM): suppressed PD-L1 expression | PD-L1 expression in B cell (B cell in PBMCs [4]; transient addition (200 μM 6 hours, washed)): tended to maintain the expression; also recorded: tended to rather increase PD-L1 expression | CD8 T cells [5, 10]: tend to increase | GVHD symptoms [5, 10]: remarkably relieved | number of spleen cells vs control [5, 10]: rather increased | weight loss by GVHD [5, 10]: only slightly caused at an initial stage | lymphocyte infiltration into a peripheral tissue such as the lung ([5]; anti-human CD45 immunohistochemical staining, 2 mg/head subcutaneously twice a week): tended to be suppressed | CD62L expression in vivo ([5]; continuously administered to humanized NOG mouse of GVHD onset model): maintained CD62L expression in vivo for a long period of 4 weeks | PD-1 expression on B cell (B cell in PBMCs [6]): not increased | cell proliferating ability (HEK293): little proliferated | cell proliferating ability (JEG-3): little proliferated | cell proliferating ability (BeWo): little proliferated | engraftment ability of transplanted PBMCs (PBMC-NOG-hIL-4-Tg mouse; PBMCs cultured with 200 μM for 6 hours before transplantation, analysis after 4 weeks): equivalent to that of a control group | specific antibody production (CH401MAP) (PBMC-NOG-hIL-4-Tg mouse; PBMCs cultured with 200 μM for 6 hours before transplantation, plasma after 4 weeks): maintained | expression of CD62L in human cells engrafted into the spleen (PBMC-NOG-hIL-4-Tg mouse; treated PBMCs transplanted to NOG-hIL-4-Tg, 4 weeks): increased as compared with that in a CTRL mouse | ratio of later-phase activated (PD-1/PD-L1-positive) cells ([7]; continuously added, 200 μM): remarkably reduced | activation (PD-1/PD-L1-positive cells) vs control group ([7]; transiently added (200 μM 6 hours, washed)): substantially equivalent to or greater than that of a control group | PD-1 expression in a T cell [8]: reduction in PD-1 expression dependent on P4 concentration | PD-L1 expression in a T cell [8]: reduced | proliferation (A20; 20 μM or less): proliferation suppression was not observed | proliferation (A20; high concentration of 200 μm): proliferation suppression was observed | proliferation (P3-X63-Ag8-U1 (P3X); 20 μM or less): proliferation suppression was not observed | proliferation (P3-X63-Ag8-U1 (P3X); high concentration of 200 μm): proliferation suppression was observed | activation marker-negative (non-activated) T cells ([9]; 20 to 200 μM): increased depending on the P4 concentration | later-phase activated (CD25-positive PD-1-positive) T cells ([9]; CD4 and CD8 T cells, 200 μM): minimally detected | ratio of later-phase activated (CD25-positive PD-1-positive) T cells ([9]; CD4 and CD8 T cells, 20 to 200 μM): reduced dependent on the P4 concentration

Source: US20240342195A1, “AGENT FOR COMBINATION USE COMPRISING T CELL AND/OR B CELL ACTIVITY REGULATOR” (TOKAI UNIVERSITY EDUCATIONAL SYSTEM, priority 2021, published 2024)
